# Earlier results as cited in EP2749553A1, “Process for preparation of enantiomerically pure S-(+)-N, N-dimethyl-a-[2-(naphthalenyloxy)ethyl] benzenemethanamine” (Deva Holding Anonim Sirketi, priority 2012, dated 2014).
# Key:
# [1] = clinical studies; (S)- versus (R)-enantiomer
# [2] = free base
compound,measurement,setting,value
"CN(C)[C@@H](CCOc1cccc2ccccc12)c1ccccc1 [Dapoxetine, S-(+)-N, N-dimethyl-a-[2-(naphthalenyloxy)ethyl] benzenemethanamine]",in vivo absorption,free base,low
same,initial plasma half life,plasma,about 1 h
same,initial half-life,rapid elimination,1 to 2 h
same,times more potent than (R)-enantiomer,[1],3.5 times
same,in vivo solubility,[2],poor
same,water solubility,[2],poor
